# Source: patent US20080176810A1, “Use of 3, 4', 5-Trihydroxy-Stilbene-3-Beta-D-glucoside in Prepartion of Medicines For Treating and/or Preventing Ischemic Heart Disease” (SHENZHEN NEPTUNUS PHARMACEUTICAL CO., LTD., priority 2004, published 2008)
# Tests used:
# [1] = tested on: myocardial infarction induced by ligation of coronary artery; assay: Canine model of myocardial infarction induced by ligation of coronary artery, iv; assay type: in vivo, dogs; conditions: for sum of ST (ΣST) segment elevation, x ± s: 0 min before, c3-c8 5,15,30,60,90,120 min after administration; for IZ/LV / IZ/WT: N-BT staining; for CK after administration / CK before administration / LDH after administration / LDH before administration: serum
# Description: Drugs were medicated with intravenous injection. The volume of the drug administered was the same as that of normal saline for the animal model group of ischemic reperfusion with administrative volume of 2 ml/kg.
# After weighing, the animals were anesthetised with pentobarbital sodium iv at the dose of 30 mg/kg. Tracheal intubation was performed and SC-M5 anesthesia respirator (manufactured by Shanghai Medical Instrument Factory) was connected for mechanical ventilation (16˜18 per min with tidal volume of 350˜550 ml) after thoracotomy at the fourth intercostal space of left sternal border. With exposure of the heart, the pericardium was cut open to make pericardium hammock. The coronary artery was dissociated from between the first and second branches of left anterior descending coronary artery, underneath which passed through silk threads for two-step ligation. On surface of heart were placed 30-point epicardial leads, to which four limbs were connected through needle-electrodes, which in turn were connected to Powerlab/8s (AD Instruments) with a multichannel switcher. Harris Two-step Ligation was performed. Two minutes before first ligation, 5 mg/kg lidocaine was given by femoral intravenous injection to prevent arrhythmia. While performing ligation, a steel wire of 1 mm in diameter was inserted into the first knot so as to be ligated together with the coronary artery. Afterward, the steel-wire was pulled out and then 30 min later, the second knot was made to complete the ligation.
# The epicardial electrogram 10 min after completing the ligation was recorded as the control value before drug administration. Later, test drug was given by femoral intravenous injection while the negative control group was given solvent of same volume. Constant dripping was completed within 30 min for all groups with a constant flow pump (SH-88AB Controllable Intravenous Injector made by Quanzhou Lizhong Electronic Medical Instrument Factory). After completion of the constant dripping, changes of epcardial electrogram at 5, 15, 30, 60, 90 and 120 min after administration were recorded respectively. The number of ST segment elevation or depression to more than 2 mV and sum of total value ST segment elevation (ΣST) were applied as the indexes for observation of changes of epcardial electrogram and to calculate the percentage of the weight of infarct area to the weight of whole heart or to the weight of left ventricle. 3 ml of blood from right ventricle was sampled before ligation and 2 hrs after administration. After centrifuged at 3000 rpm for 15 min, serum was taken to detect lactate dehydrogenase (LDH) and serum creatine kinase (CK). Method according to instruction of the LDH and CK Assay kit (batch no: 20020523, Nanjing Jiancheng Bioengineering Institute) (ENR: U90625, Randox Company, UK) was adopted for detection. The performance was with a ultraviolet/visible range spectrophotometer of UV751GD type (Shanghai analytical apparatus Factory).
# [2] = tested on: acute myocardial infarction; assay: Acute myocardial infarction in anesthetized dogs, oral (intragastric) administration; assay type: in vivo; conditions: for weight of infarct myocardium: N-BT staining; for Weight of IM/Weight of LH: in % (unit assumed); for LDH: serum, 180 min; for ΔST: surface ECG, by row: r6 before, r7-r12 5,15,30,60,90,120 min after administration
# Description: Drugs were administered intragastrically in equal volume at unequal concentration. […] After weighing, animals were anesthetized with 3% pentobarbital sodium iv at the dose of 30 mg/kg. Tracheal intubation was performed and anesthesia respirator (SC-M5, manufactured by Shanghai Medical Instrument Factory) was connected for mechanical ventilation (18 20 per min with tidal volume of 350 550 ml) after thoracotomy. Needle electrodes were punctured into four limbs and under chest skin for monitoring standard limb lead and V3 and ECG. Thoracotomy was performed at the third intercostal space of left sternal border and the fourth rib was removed for full exposure of heart. The pericardium was cut open to make a pericardium hammock. The coronary artery was dissociated from between the second and third branches of left anterior descending coronary artery, underneath which pass through silk threads for two-step ligation. On surface of heart were placed 30-point epicardial leads, to which four limbs were connected through needle-electrodes, which were in turn connected to Powerlab/8s (AD Instruments) with a multichannel switcher to record epicardial electrogram. Animal models of acute myocardial ischemia were prepared with the method of two-step ligation. […] NBT). While other part of myocardium was dyed to blue-black, the Infarct myocardium would not be colorated, which was then cut off and weighted. The results of experiment were shown in x±s and statistics were checked with t-test of non-matched pair. When p<0.05, it was judged that the differences were statistically significant.
# Kunming mice = assay: Acute toxicity test of mice, intravenous injection; conditions: single dose tail intravenous injection
# Description: Drugs were medicated via intravenous injection at different concentration in same volume, which was 20 ml/kg.
# 40 healthy Kunming mice were selected and randomly divided into 4 groups. Drugs were injected via tail vein at one time and the doses were 300 mg/kg, 425 mg/kg, 600 mg/kg and 850 mg/kg, respectively. Mice were constantly observed for 4 hours after the injection. After that, observations were carried out once in the morning and once in the afternoon for 7 days continuously. Signs of intoxation and time of death were recorded.
substance,measurement,setting,value
"3,4′,5-trihydroxy-stilbene-3-β-D-glucoside [TSG]",CK B/A,[1]; TSG 2.5 mg/kg,2.54 ± 0.27
same,LDH B/A,[1]; TSG 2.5 mg/kg,2.28 ± 0.21
same,"sum of ST (ΣST) segment elevation, x ± s","[1]; TSG 2.5 mg/kg iv, 0 min before administration",154.5 ± 60.4 mV
same,"sum of ST (ΣST) segment elevation, x ± s","[1]; TSG 2.5 mg/kg iv, 5 min after administration",154.7 ± 55.0 mV
same,"sum of ST (ΣST) segment elevation, x ± s","[1]; TSG 2.5 mg/kg iv, 30 min after administration",129.2 ± 57.7 mV
same,"sum of ST (ΣST) segment elevation, x ± s","[1]; TSG 2.5 mg/kg iv, 60 min after administration",122.7 ± 59.6 mV
same,"sum of ST (ΣST) segment elevation, x ± s","[1]; TSG 2.5 mg/kg iv, 90 min after administration",128.3 ± 55.1 mV
same,IZ/LV,[1]; TSG 2.5 mg/kg,21.68 ± 1.88 %
same,IZ/WT,[1]; TSG 2.5 mg/kg,11.70 ± 0.93 %
same,CK after administration,[1]; TSG 2.5 mg/kg,446.6 ± 39.4 IU/L
same,CK before administration,[1]; TSG 2.5 mg/kg,176.7 ± 18.8 IU/L
same,LDH after administration,[1]; TSG 2.5 mg/kg,823.3 ± 186.3 IU/L
same,LDH before administration,[1]; TSG 2.5 mg/kg,359.7 ± 70.5 IU/L
same,CK B/A,[1]; TSG 5.0 mg/kg,1.98 ± 0.38
same,LDH B/A,[1]; TSG 5.0 mg/kg,2.09 ± 0.16
same,"sum of ST (ΣST) segment elevation, x ± s","[1]; TSG 5.0 mg/kg iv, 0 min before administration",153.8 ± 50.7 mV
same,"sum of ST (ΣST) segment elevation, x ± s","[1]; TSG 5.0 mg/kg iv, 5 min after administration",148.0 ± 39.9 mV
same,"sum of ST (ΣST) segment elevation, x ± s","[1]; TSG 5.0 mg/kg iv, 30 min after administration",116.2 ± 53.7 mV
same,"sum of ST (ΣST) segment elevation, x ± s","[1]; TSG 5.0 mg/kg iv, 60 min after administration",105.3 ± 53.6 mV
same,"sum of ST (ΣST) segment elevation, x ± s","[1]; TSG 5.0 mg/kg iv, 90 min after administration",103.8 ± 54.1 mV
same,IZ/LV,[1]; TSG 5.0 mg/kg,15.25 ± 1.41 %
same,IZ/WT,[1]; TSG 5.0 mg/kg,9.03 ± 1.16 %
same,CK after administration,[1]; TSG 5.0 mg/kg,356.2 ± 64.8 IU/L
same,CK before administration,[1]; TSG 5.0 mg/kg,180.8 ± 13.2 IU/L
same,LDH after administration,[1]; TSG 5.0 mg/kg,587.1 ± 170.6 IU/L
same,LDH before administration,[1]; TSG 5.0 mg/kg,281.2 ± 80.9 IU/L
same,CK B/A,[1]; TSG 10 mg/kg,1.74 ± 0.37
same,LDH B/A,[1]; TSG 10 mg/kg,1.99 ± 0.14
same,"sum of ST (ΣST) segment elevation, x ± s","[1]; TSG 10 mg/kg iv, 0 min before administration",155.0 ± 46.4 mV
same,"sum of ST (ΣST) segment elevation, x ± s","[1]; TSG 10 mg/kg iv, 5 min after administration",151.7 ± 35.6 mV
same,"sum of ST (ΣST) segment elevation, x ± s","[1]; TSG 10 mg/kg iv, 30 min after administration",115.2 ± 50.9 mV
same,"sum of ST (ΣST) segment elevation, x ± s","[1]; TSG 10 mg/kg iv, 60 min after administration",104.7 ± 45.5 mV
same,"sum of ST (ΣST) segment elevation, x ± s","[1]; TSG 10 mg/kg iv, 90 min after administration",102.0 ± 51.8 mV
same,IZ/LV,[1]; TSG 10 mg/kg,13.92 ± 1.32 %
same,IZ/WT,[1]; TSG 10 mg/kg,8.65 ± 1.11 %
same,CK after administration,[1]; TSG 10 mg/kg,299.5 ± 63.9 IU/L
same,CK before administration,[1]; TSG 10 mg/kg,172.7 ± 11.1 IU/L
same,LDH after administration,[1]; TSG 10 mg/kg,551.6 ± 131.3 IU/L
same,LDH before administration,[1]; TSG 10 mg/kg,279.3 ± 70.8 IU/L
same,weight of infarct myocardium,[2]; TSG 5 mg/kg oral,5.98 ± 1.71 g
same,Weight of IM/Weight of LH,[2]; TSG 5 mg/kg oral,10.8 ± 2.81
same,LDH,[2]; TSG 5 mg/kg oral,159 ± 80.4 IU/L
same,ΔST,"[2]; TSG 5 mg/kg oral, 5 min after administration",0.70 ± 0.50 mV
same,ΔST,"[2]; TSG 5 mg/kg oral, 15 min after administration",0.71 ± 0.48 mV
same,ΔST,"[2]; TSG 5 mg/kg oral, 30 min after administration",0.73 ± 0.51 mV
same,ΔST,"[2]; TSG 5 mg/kg oral, 60 min",0.88 ± 0.54 mV
same,ΔST,"[2]; TSG 5 mg/kg oral, 90 min after administration",0.82 ± 0.49 mV
same,ΔST,"[2]; TSG 5 mg/kg oral, 120 min after administration",0.86 ± 0.52 mV
same,ΔST,"[2]; TSG 5 mg/kg oral, Before administration",0.66 ± 0.45 mV
same,weight of infarct myocardium,[2]; TSG 10 mg/kg oral,3.17 ± 0.66 g
same,Weight of IM/Weight of LH,[2]; TSG 10 mg/kg oral,6.61 ± 1.31
same,LDH,[2]; TSG 10 mg/kg oral,140 IU/L
same,ΔST,"[2]; TSG 10 mg/kg oral, 5 min after administration",0.68 ± 0.51 mV
same,ΔST,"[2]; TSG 10 mg/kg oral, 15 min after administration",0.69 ± 0.52 mV
same,ΔST,"[2]; TSG 10 mg/kg oral, 30 min after administration",0.69 ± 0.45 mV
same,ΔST,"[2]; TSG 10 mg/kg oral, 60 min",0.70 ± 0.44 mV
same,ΔST,"[2]; TSG 10 mg/kg oral, 90 min after administration",0.75 ± 0.46 mV
same,ΔST,"[2]; TSG 10 mg/kg oral, 120 min after administration",0.81 ± 0.52 mV
same,ΔST,"[2]; TSG 10 mg/kg oral, Before administration",0.55 ± 0.40 mV
same,weight of infarct myocardium,[2]; TSG 20 mg/kg oral,2.31 ± 0.70 g
same,Weight of IM/Weight of LH,[2]; TSG 20 mg/kg oral,4.03 ± 0.61
same,LDH,[2]; TSG 20 mg/kg oral,120 IU/L
same,signs of intoxication,Kunming mice,"body shaking, occasionally restlessness, twitch and other responses appeared"
same,time of death after the drug injection,Kunming mice,5 to 1440 min
